Laboratory results: patent US20090264421A1 (priority 2007, published 2009)
Like-named read-outs stand apart in the source and are kept apart here.

Tests used:
[1] = system: freshly collected sorted patient CD138+ myeloma cells; details: 24 hours
Description: FIG. 3. […] Survival indicated in A-E was assessed using a trypan blue exclusion assay, counting viable cells using a hemocytometer after 24 hour exposure to the indicated drugs and drug concentrations.
Patient bone marrow leukocytes were divided into myeloma (CD138+) and non-myeloma/normal leukocyte (CD138−) fractions employing sorting using magnetic bead technology in kit form (MACS CD138 microbeads, Miltenyi Biotech, Auburn, Calif.). Sorted cells were plated in a 96-well tissue culture plate at a concentration of 5×10^5 cells and dosed with indicated drug concentrations for 24 hours. Survival was assessed using a trypan blue exclusion assay.

A549 cells [2] = type: cell-based, human
Description: FIG. 7. […] A549 cells were exposed to the indicated concentration of chaetocin for 24 hours, with addition of glutathione or diluent 30 minutes prior to chaetocin addition. Glutathione levels were assessed by spectrophotometric assay as described below. […] Cells were treated with 10 μM chaetocin for 20 minutes prior to assay, and calculated intracellular chaetocin levels were measured by HPLC with adjusted for differences in average cell volume (calculated from measured cell radii ascertained via light microscopy). Shaded area represents 1 standard deviation confidence interval, with central bar reflecting the mean relative intracellular chaetocin level. […] Cells from 4 myeloma patients were exposed to 200 μM hydrogen peroxide for 24 hours prior to assay, with trypan blue exclusion used to assess surviving cells.
Assessment of cellular oxidative stress: Cellular oxidative stress was assessed utilizing 5,6-chloromethyl-2′,7′-dichlorodihydrofluorescein diacetate or hydroethidium (Molecular Probes/Invitrogen, Carlsbad, Calif.) as cell permeable fluorescent probes and FACS analyses.

A549 cells [3] = details: for effect of NAC on reductions in colony formation caused by HDAC inhibitors: data not shown
Description: FIG. 5. […] B. Assessment of intracellular (A549 cells) and extracellular (media) chaetocin concentrations as functions of time in response to addition of 10 μM chaetocin to tissue culture media at time 0. C. […] For B and C, chaetocin concentrations were determined as described in the text using HPLC. […] Cells were exposed to all agents for 24 hours, with colonies assessed 6-7 days subsequently as described below.
FIG. 6. […] C. and D. The effects of glutathione pretreatment on intracellular (C) and extracellular (media, D) chaetocin concentration in response to treatment of A549 cells with 10 μM chaetocin for 5 min. Intracellular and extracellular chaetocin concentrations were assessed using HPLC as described in the text, with 100 μM glutathione added 5 minutes before chaetocin addition. E. “Double reciprocal” plot indicating the effects of 5 minute pretreatment with 100 […] glutathione or diluent on intracellular chaetocin concentrations resulting from exposure of A549 cells to varying concentration of chaetocin for 5 minutes. Intracellular chaetocin concentrations were assessed using HPLC as described in the text. Results shown are representative of three independent experiments.
Colony formatting assays: Briefly, 650 suspended A549 cells obtained from trypsinization of stock flasks of subconfluent cell cultures were deposited into each of triplicate sets of 35 mm tissue culture plates and allowed to adhere for 16 hours. Cells were then treated for the indicated durations (24 hours unless otherwise indicated) with diluent and/or drugs as indicated in the text and Figures. After drug removal and washing, cells were allowed to proliferate in drug-free medium for 7 to 10 days, and thereafter washed twice with serum-free phosphate buffered saline (PBS), stained with Coomassie blue, and then manually counted.

thioredoxin reductase = molecular target: T1, thioredoxin reductase (Rattus norvegicus, UniProt O89049); experiment: Thioredoxin reductase activity assay (gel-based oxidation state of thioredoxin method); type: biochemical; details: gel-based, AMS modification
T1 construct: rat liver thioredoxin reductase; purchased Sigma (St. Louis, Mo.); host or cells: rat liver
T1 sequence (O89049 1-499): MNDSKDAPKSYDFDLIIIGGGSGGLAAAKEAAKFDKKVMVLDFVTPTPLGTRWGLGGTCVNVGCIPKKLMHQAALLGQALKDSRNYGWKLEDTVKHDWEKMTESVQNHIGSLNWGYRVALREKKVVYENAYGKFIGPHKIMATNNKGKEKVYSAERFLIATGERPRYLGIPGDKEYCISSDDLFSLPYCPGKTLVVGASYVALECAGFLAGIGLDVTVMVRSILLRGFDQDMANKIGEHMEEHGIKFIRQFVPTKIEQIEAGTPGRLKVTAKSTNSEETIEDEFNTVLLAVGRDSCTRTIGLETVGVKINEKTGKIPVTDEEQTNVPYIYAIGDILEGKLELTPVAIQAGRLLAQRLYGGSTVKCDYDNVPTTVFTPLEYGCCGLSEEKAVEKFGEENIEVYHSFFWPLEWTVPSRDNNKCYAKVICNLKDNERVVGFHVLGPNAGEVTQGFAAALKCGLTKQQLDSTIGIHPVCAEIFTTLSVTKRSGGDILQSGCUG
Description: HeLa cells were obtained from ATCC.
Thioredoxin Reductase Activity Assay (gel-based oxidation state of thioredoxin method): Reduction of thioredoxin by thioredoxin reductase was measured by the decrease in electrophoretic mobility caused by covalent modification of thioredoxin (by AMS) when the disulfide is reduced. […] At the indicated time, a 5 μL sample was removed and immediately added to 5 μL of 30 mM AMS in TE buffer (pH 7.5). The AMS was allowed to react (15 minutes at 22° C.) with reduced thioredoxin sulfhydryl groups, then the samples were mixed with non-reducing sample buffer and were electrophoresed on 18% Tris-HCl SDS-PAGE gels. The gels were stained with Coomassie blue and bands were imaged and quantitated using a Syngene InGenius gel documentation system (Frederick, Md.).

TrxR1 = molecular target: T2, TrxR1 (Rattus norvegicus, UniProt O89049)
T2 sequence (O89049 1-499): T1 sequence (O89049 1-499)
Excerpt: Reagents: Chaetocin, β-Nicotinamide adenine dinucleotide 2′-phosphate reduced tetrasodium salt hydrate (NADPH), rat liver thioredoxin reductase, 5,5′-dithiobis(2-nitrobenzoic acid) (DTNB), oxidized glutathione (GSSG), bovine insulin, gliotoxin, thioredoxin reductase assay kit, anti-actin antibody and Celytic lysis reagent were purchased from Sigma (St. Louis, Mo.); yeast glutathione reductase and Complete Protease Inhibitor Tablets from Roche (Indianapolis, Ind.); BCA protein from Pierce (Rockford, Ill.); oxidized E. coli thioredoxin and dithiothreitol (DTT) from Promega (Madison, Wis.); verruculogen from Calbiochem (San Diego, Calif.); 4-acetamido-4′-maleimidylstilbene-2,2′-disulfonic acid (AMS) and Lipofectamine-Plus from Invitrogen (Carlsbad, Calif.); chaetomin from Alexis Biochemicals (San Diego, Calif.); and anti-thioredoxin antibody from Cell Signaling (Beverly, Mass.). HeLa cells were obtained from ATCC.
Steady-state kinetics: The 100 μL reaction consisted of 100 mM potassium phosphate (pH 7.0), 10 mM EDTA, 0.0004 U/μL thioredoxin reductase and chaetocin or other compounds as indicated. The assay was carried out in a 96-well quartz plate and the oxidation of NADPH was measured as a change in absorption at 340 nm. The initial velocities of the reaction were calculated from the decrease in the absorbance between 0 and 5 min (slope), and on a pathlength of 0.3 cm and NADPH ε=6.22 mmol^−1*cm^−1*L. The velocity versus concentration data were then analyzed using SigmaPlot's Enzyme Kinetics 1.3 program (Systat Software, San Jose, Calif.).

HeLa cells = experiment: Transient thioredoxin overexpression in HeLa cells, trypan blue viability; type: cell-based, human; details: 100 nM, 24 hours
Description: A. Transient overexpression of thioredoxin attenuates chaetocin—but not doxorubicin-induced cytotoxicity in HeLa cells. Transfected cells were treated for 24 hours, cell viability assessed using a trypan blue […] assay. Inset: immunoblotting showing increased level of thioredoxin in transiently transfected HeLa cells compared to empty-vector transfected cells. B. Model indicating how chaetocin competes with thioredoxin as a substrate for thioredoxin reductase, thereby serving to attenuate reduction of the thioredoxin reductase downstream substrate and effector thioredoxin. Figure numbers corresponding to experimental data supporting indicated effects are shown.
Cell culture, transient transfections, and immunoblotting: HeLa cells were cultured in RPMI 1640 containing 5% FBS and 2 mM L-glutamine. Cells were passaged twice weekly and maintained in 37° C. in an atmosphere containing 95% air-5% CO2 (vol/vol). For transfections, 10^5 cells per well were plated in 12-well plates and were transfected with 1 μg pcDNA or pcDNA-Trx using standard Lipofectamine-Plus procedures. Transfection efficiency based on cells transfected with GFP was 80%. […] The cells were then trypsinized and manually counted in trypan blue to exclude dead cells. […] Protein was analyzed by BCA assay and lysates were electrophoresed on 15% SDS-PAGE gels and transferred to nitrocellulose. […]

A549 cells [4] = type: cell-based, human; details: glutathione added 5 minutes before 10 μM chaetocin
Excerpt: Measurement of intra- and extracellular chaetocin levels: Tumor cells treated with indicated chaetocin concentrations were washed twice with ice cold PBS, immediately solubilized in 0.5 M perchloric acid, and evaluated “real time” via HPLC using Beckman System Gold Nouveau Software with a dual pump 125 gradient pump system, 507e autosampler, 168 diode array detector, and Beckman Ultrasphere ODS column (4.6 mm×[…]×7 μm) using the following elution profile: 100% water to 100% methanol linear gradient over 40 minutes, followed by a 10 minute period of elution with 100% methanol. Quantitation was accomplished using a standard curve of peak areas derived from analogous HPLC data using varying concentrations of chaetocin.

[5] = substrate of TrxR1, NADPH oxidation

Which “sensitivity of patient myeloma cells versus matched normal leukocytes” value ([1]; 200 μM hydrogen peroxide, 4 patients) does the source give for `OO` [H2O2, hydrogen peroxide] here?
The value was “more sensitive to peroxide-induced cytotoxicity”.

What about the cellular oxidative stress (A549 cells [2]; 24 hours, FACS probe) of the same molecule?
The cellular oxidative stress was “increased intracellular oxidative species”.

For `O=C(/C=C/c1ccc(CN(CCO)CCc2c[nH]c3ccccc23)cc1)NO` [LAQ-824], which “effect of NAC on reductions in colony formation caused by HDAC inhibitors” value (shortened to “effect of NAC on reductions … by HDAC inhibitors”) (A549 cells [3]; A549 cells) is on record?
Its value is “unaffected by NAC”.

Which “effect of co-treatment on chaetocin-induced reductions in colony formation” value (A549 cells [3]; A549 cells, co-treatment with chaetocin) does the source give for `CC(=O)N[C@@H](CS)C(=O)O` [NAC, N-acetyl cysteine] here?
The value was “attenuated chaetocin-induced cytotoxicity”.

What about the “effect of pretreatment on chaetocin-induced oxidative stress” value (A549 cells [2]; 10 mM NAC) of the same molecule?
The value was “attenuated chaetocin-induced oxidative stress”.

With `CS[C@@]1(CO)C(=O)N2[C@H]3Nc4ccccc4[C@@]3([C@]34C[C@]5(SC)C(=O)N(C)[C@@](CO)(SC)C(=O)N5[C@H]3Nc3ccccc34)C[C@]2(SC)C(=O)N1C` [S-methyl chaetocin] as the molecule, how does the “cytotoxicity (colony formation)” value (A549 cells [3]; 24 hour exposure, modified chaetocin disulfide bond) read?
The value was “complete abrogation of its cytotoxicity”.

What about the “inhibition of reduction of thioredoxin by thioredoxin reductase” value (thioredoxin reductase) of the same molecule?
The value was “inability”.

Which results are given for `CN1C(=O)[C@]2(Cc3cn([C@]45C[C@@]67SS[C@@](CO)(C(=O)N6[C@H]4Nc4ccccc45)N(C)C7=O)c4ccccc34)SS[C@@]1(CO)C(=O)N2C` [chetomin, chaetomin]?
inhibition of reduction of thioredoxin by thioredoxin reductase (thioredoxin reductase): also inhibited the activity of thioredoxin reductase, albeit somewhat less effectively than chaetocin; Km (TrxR1; [5]): 16.1 ± 5.4 µM

With `COc1cccc2c1C(=O)c1c(O)c3c(c(O)c1C2=O)C[C@@](O)(C(=O)CO)C[C@@H]3O[C@H]1C[C@H](N)[C@H](O)[C@H](C)O1` [doxorubicin] as the molecule, how does the “activity against sorted patient CD138+ myeloma cells” value ([1]; ex vivo, trypan blue exclusion) read?
Its value is “largely resistant”.

And the “effect of transient Trx overexpression on drug-induced cell death” value (HeLa cells)?
The value was “did not appreciably rescue cells from doxorubicin-induced cell death”.

What does the source list for `CN1C(=O)[C@]23CC4=CC=C[C@H](O)[C@H]4N2C(=O)[C@@]1(CO)SS3` [gliotoxin]?
inhibition of reduction of thioredoxin by thioredoxin reductase (thioredoxin reductase): also inhibited the activity of thioredoxin reductase, albeit somewhat less effectively than chaetocin; Km (TrxR1): 16 ± 5 µM

For `N[C@@H](CCC(=O)N[C@@H](CS)C(=O)NCC(=O)O)C(=O)O` [glutathione, reference compound], which “effect of pretreatment on cellular accumulation of chaetocin” value (A549 cells [4]) is on record?
Its value is “attenuated the cellular accumulation of chaetocin”.

And the “effect of co-treatment on chaetocin-induced reductions in colony formation” value (A549 cells [3])?
Its value is “attenuated chaetocin-induced cytotoxicity”.

How did the “effect of NAC on reductions … by HDAC inhibitors” value (A549 cells [3]; A549 cells) turn out when `CC(/C=C/C(=O)NO)=C\[C@@H](C)C(=O)c1ccc(N(C)C)cc1` [tricostatin A, trichostatin A] was run?
Its value is “unaffected by NAC”.

With `CCCC(CCC)C(=O)O` [valproic acid] as the molecule, how does the “effect of NAC on reductions … by HDAC inhibitors” value (A549 cells [3]; A549 cells) read?
The value was “unaffected by NAC”.

For `COc1ccc2c3c4n(c2c1)[C@H](C=C(C)C)OOC(C)(C)C[C@@H]4N1C(=O)[C@@H]2CCCN2C(=O)[C@]1(O)[C@H]3O` [verruculogen, reference compound], which “inhibition of reduction of thioredoxin by thioredoxin reductase” value (thioredoxin reductase) is on record?
Its value is “inability”.

How did the Km (TrxR1; [5]) turn out when “Trx: TrxR1 native substrate thioredoxin (oxidized E. coli thioredoxin from Promega)” was run?
The Km was 105 ± 26 µM.
